Earlier results on 1 molecule are cited in US9771618B2, “Methods for treating breast cancer” (Bioarray Genetics, Inc., priority 2009, dated 2017).

Each structure is given as a SMILES string.

The test system of the series is locally advanced breast cancer. The conditions noted are these: 24 tumors of the Chang, et al. dataset (10 of 24); response assessed after neoadjuvant chemotherapy.

Consider `CC(=O)O[C@H]1C(=O)[C@@]2(C)[C@H]([C@H](OC(=O)c3ccccc3)[C@]3(O)C[C@H](OC(=O)[C@H](O)[C@@H](NC(=O)c4ccccc4)c4ccccc4)C(C)=C1C3(C)C)[C@]1(OC(C)=O)CO[C@@H]1C[C@@H]2O` [taxol, paclitaxel], for which the “overall taxol sensitive rate” value was 41.7%.
